Test results as given in patent US9226501B2, “Pesticidal compositions and processes related thereto” (Dow AgroSciences LLC, priority 2012, dated 2016).

How the values were obtained:
Type in all cases: in vivo
[1] = test system: Beet Armyworm (BAW) (spodoptera exigua); experiment: Bioassay on beet armyworm (BAW), 128-well diet tray assay; details: for pest or weed control at 50 µg/cm2: Spodoptera exigua, 168 h, % mortality, second instar larvae, 50 μg/cm^2 on artificial diet, five to seven days, 25° C., read-out: BAW Rating; for BAW Rating: Table 5, prophetic compounds subsequently exemplified, beet armyworm
Procedure, shortened: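 Second-instar Spodoptera exigua larvae (one to five per well) on artificial diet surface-treated with 50 μg/cm^2 compound in 90:10 acetone-water, eight wells per compound. Held 5–7 days at 25° C, 14:10 light-dark; percent mortality averaged across wells.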

[2] = test system: Cabbage Looper (CL) (Trichoplusia ni); experiment: Bioassay on cabbage looper (CL), 128-well diet tray assay; details: for pest or weed control at 50 µg/cm2: Trichoplusia ni, 168 h, % mortality, second instar larvae, 50 μg/cm^2 on artificial diet, five to seven days, 25° C., read-out: CL Rating; for CL Rating: Table 5, prophetic compounds subsequently exemplified, cabbage looper
Procedure, shortened: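 Second instar larvae, one to five per well, on artificial diet surface-treated with 50 μg/cm^2 compound in acetone-water and dried. Held at 25° C, 14:10 light-dark, five to seven days; percent mortality averaged over eight wells.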

[3] = test system: green peach aphid (GPA) (Myzus persicae); experiment: Bioassay on green peach aphid (GPA), foliar spray on cabbage seedlings; details: 72 h, corrected % control (Abbott), 200 ppm spray on cabbage seedlings, three days, read-out: GPA Rating
Experimental: Certain molecules disclosed in this document were tested against GPA using procedures described in the following example. In the reporting of the results, the “GPA Rating Table” was used (See Table Section). Cabbage seedlings grown in 3-inch pots, with 2-3 small (3-5 cm) true leaves, were used as test substrate. The seedlings were infested with 20-50 GPA (wingless adult and nymph stages) one day prior to chemical application. Four pots with individual seedlings were used for each treatment. Test compounds (2 mg) were dissolved in 2 mL of acetone/MeOH (1:1) solvent, forming stock solutions of 1000 ppm test compound. The stock solutions were diluted 5× with 0.025% Tween 20 in water to obtain the solution at 200 ppm test compound. A hand-held aspirator-type sprayer was used for spraying a solution to both sides of […] leaves until runoff. Reference plants (solvent check) were sprayed with the diluent only containing 20% by volume of acetone/MeOH (1:1) solvent. Treated plants were held in a holding room for three days at approximately 25° C. and ambient relative humidity (RH) prior to grading. Evaluation was conducted by counting the number of live aphids per plant under a microscope. Percent Control was measured by using Abbott's correction formula (W. S. Abbott, “A Method of Computing the Effectiveness of an Insecticide” J. Econ. Entomol. 18 (1925), pp. 265-267) as follows. […]

C[C@@H](NC(=O)c1ccc(/C=C/C(c2cc(Cl)c(Cl)c(Cl)c2)C(F)(F)F)cc1I)C(=O)NCC(F)(F)F (stereo partly shown) [FA16]
pest or weed control at 50 µg/cm2 [1]: 50 to 100% | pest or weed control at 50 µg/cm2 [2]: 50 to 100% | pest or weed control at 200 ppm [3]: 80 to 100%

O=C(CNC(=O)c1ccc(/C=C/C(c2cc(C(F)(F)F)cc(C(F)(F)F)c2)C(F)(F)F)cc1Br)NCC(F)(F)F (stereo not shown) [P1269]
BAW Rating [1]: A (50-100) | CL Rating [2]: A (50-100)

O=C(CNC(=O)c1ccc(/C=C/C(c2cc(F)c(F)c(F)c2)C(F)(F)F)cc1Br)NCC(F)(F)F (stereo not shown) [P1197]
BAW Rating [1]: A (50-100) | CL Rating [2]: A (50-100)

C[C@@H](NC(=O)c1ccc(/C=C/C(c2cc(Cl)c(Cl)cc2Cl)C(F)(F)F)cc1Br)C(=O)NCC(F)(F)F (stereo partly shown) [P156]
BAW Rating [1]: A (50-100) | CL Rating [2]: A (50-100)

Cc1cc(C(/C=C/c2ccc(C(=O)N[C@H](C)C(=O)NCC(F)(F)F)c(C(F)(F)F)c2)C(F)(F)F)cc(Cl)c1Cl (stereo partly shown) [FA20]
pest or weed control at 50 µg/cm2 [1]: 50 to 100% | pest or weed control at 50 µg/cm2 [2]: 50 to 100%

Cc1cc(C(/C=C/c2ccc(C(=O)N[C@H](C)C(=O)NCC(F)(F)F)c(C(F)(F)F)c2)C(F)(F)F)ccc1F (stereo partly shown) [P1092]
BAW Rating [1]: A (50-100) | CL Rating [2]: A (50-100)

C[C@@H](NC(=O)c1ccc(/C=C/C(c2cccc(OC(F)(F)F)c2)C(F)(F)F)cc1C(F)(F)F)C(=O)NCC(F)(F)F (stereo partly shown) [P228]
BAW Rating [1]: A (50-100) | CL Rating [2]: A (50-100)

C[C@@H](NC(=O)c1ccc(/C=C/C(c2ccc(F)c(F)c2F)C(F)(F)F)cc1C(F)(F)F)C(=O)NCC(F)(F)F (stereo partly shown) [P84]
BAW Rating [1]: A (50-100) | CL Rating [2]: A (50-100)

CCNC(=O)[C@@H](C)NC(=O)c1ccc(/C=C/C(c2cc(Cl)c(Cl)c(Cl)c2)C(F)(F)F)cc1C(F)(F)F (stereo partly shown) [P1623]
BAW Rating [1]: A (50-100) | CL Rating [2]: A (50-100)

C[C@@H](NC(=O)c1ccc(/C=C/C(c2ccc(Cl)c([N+](=O)[O-])c2)C(F)(F)F)cc1Br)C(=O)NCC(F)(F)F (stereo partly shown) [P730]
BAW Rating [1]: A (50-100) | CL Rating [2]: A (50-100)

C[C@@H](NC(=O)c1ccc(/C=C/C(c2cc(Cl)c(Cl)c(Cl)c2)C(F)(F)C(F)(F)F)cc1Br)C(=O)NCC(F)(F)F (stereo partly shown) [P1599]
BAW Rating [1]: A (50-100) | CL Rating [2]: A (50-100)

Fc1c(Cl)cc(C(/C=C/c2ccc(C(=S)NCC(=S)NCC(F)(F)F)c(Br)c2)C(F)(F)F)cc1Cl (stereo not shown) [P14]
BAW Rating [1]: B (More than 0-Less than 50) | CL Rating [2]: A (50-100)

O=C(CNC(=O)c1ccc(/C=C/C(c2cc(Cl)c(Cl)c(Cl)c2)C(F)(F)F)cc1Br)NCC(F)F (stereo not shown) [FA3]
pest or weed control at 50 µg/cm2 [1]: 50 to 100% | pest or weed control at 50 µg/cm2 [2]: 50 to 100%

C[C@@H](NC(=O)c1ccc(/C=C/C(c2ccc(OC(F)(F)F)c(Cl)c2)C(F)(F)F)cc1Br)C(=O)NCC(F)(F)F (stereo partly shown) [FA30]
pest or weed control at 50 µg/cm2 [1]: 50 to 100% | pest or weed control at 50 µg/cm2 [2]: 50 to 100%

O=C(NCC(=S)NCC(F)(F)F)c1ccc(/C=C/C(c2cc(Cl)c(F)c(Cl)c2)C(F)(F)F)cc1Br (stereo not shown) [P1864]
BAW Rating [1]: A (50-100) | CL Rating [2]: A (50-100)

C[C@@H](NC(=O)c1ccc(/C=C/C(c2ccc(Br)c(Br)c2)C(F)(F)F)cc1Br)C(=O)NCC(F)(F)F (stereo partly shown) [P568]
BAW Rating [1]: A (50-100) | CL Rating [2]: A (50-100)

C[C@@H](NC(=O)c1ccc(/C=C/C(c2cc(Br)cc(Br)c2)C(F)(F)F)cc1C(F)(F)F)C(=O)NCCF (stereo partly shown) [P2043]
BAW Rating [1]: A (50-100) | CL Rating [2]: A (50-100)

O=C(CNC(=O)c1ccc(/C=C/C(c2cc(Cl)c(Cl)c(Cl)c2)C(F)(F)F)cc1Cl)NCC(F)F (stereo not shown) [FA1]
pest or weed control at 50 µg/cm2 [1]: 50 to 100% | pest or weed control at 50 µg/cm2 [2]: 50 to 100%

CSc1cc(/C=C/C(c2cc(Cl)c(F)c(Cl)c2)C(F)(F)F)ccc1C(=O)NCC(=O)NCC(F)(F)F (stereo not shown) [P12]
BAW Rating [1]: A (50-100) | CL Rating [2]: A (50-100)

O=C(CNC(=O)c1ccc(/C=C/C(c2ccc(Cl)c(Cl)c2)C(F)(F)F)cc1Br)NCC(F)(F)F (stereo not shown) [P1776]
BAW Rating [1]: A (50-100) | CL Rating [2]: A (50-100)

O=C(CNC(=O)c1ccc(/C=C/C(c2cc(Cl)c(F)c(Cl)c2)C(F)(F)F)cc1C(F)(F)F)NCC(F)(F)F (stereo not shown) [P1862]
BAW Rating [1]: A (50-100) | CL Rating [2]: A (50-100)

C[C@@H](NC(=O)c1ccc(/C=C/C(c2cc(Cl)cc(Br)c2)C(F)(F)F)cc1C(F)(F)F)C(=O)NCC(F)(F)F (stereo partly shown) [P588]
BAW Rating [1]: A (50-100) | CL Rating [2]: A (50-100)

CC(NC(=O)c1ccc(/C=C/C(c2cc(Cl)c(Cl)c(Cl)c2)C(F)(F)F)cc1Br)C(=O)NCCC(F)(F)F (stereo not shown) [P1631A]
BAW Rating [1]: A (50-100) | CL Rating [2]: A (50-100)

C[C@@H](NC(=O)c1ccc(/C=C/C(c2ccc(F)c(F)c2F)C(F)(F)F)cc1Br)C(=O)NCC(F)(F)F (stereo partly shown) [P82]
BAW Rating [1]: A (50-100) | CL Rating [2]: A (50-100)

COc1c(F)cc(C(/C=C/c2ccc(C(=O)NCC(=O)NCC(F)(F)F)c(Br)c2)C(F)(F)F)cc1F (stereo not shown) [FA8]
pest or weed control at 50 µg/cm2 [1]: 0 to 50% | pest or weed control at 50 µg/cm2 [2]: 50 to 100%

CC(NC(=O)CNC(=O)c1ccc(/C=C/C(c2cc(Br)cc(Br)c2)C(F)(F)F)cc1Cl)C(F)(F)F (stereo not shown) [P2010]
BAW Rating [1]: A (50-100) | CL Rating [2]: A (50-100)

C[C@@H](NC(=O)c1ccc(/C=C/C(c2ccc(F)c(C#N)c2)C(F)(F)F)cc1Br)C(=O)NCC(F)(F)F (stereo partly shown) [P802]
BAW Rating [1]: A (50-100) | CL Rating [2]: A (50-100)

CCc1cc(Cl)cc(C(/C=C/c2ccc(C(=O)N[C@H](C)C(=O)NCC(F)(F)F)c(Br)c2)C(F)(F)F)c1 (stereo partly shown) [FA31]
pest or weed control at 50 µg/cm2 [1]: 50 to 100% | pest or weed control at 50 µg/cm2 [2]: 50 to 100%

CCC[C@@H](NC(=O)c1ccc(/C=C/C(c2cc(Cl)c(Cl)c(Cl)c2)C(F)(F)F)cc1Br)C(=O)NCC(F)(F)F (stereo partly shown) [FA19]
pest or weed control at 50 µg/cm2 [1]: 50 to 100% | pest or weed control at 50 µg/cm2 [2]: 50 to 100%

C[C@@H](NC(=O)c1ccc(/C=C/C(c2cc(Br)cc(Br)c2)C(F)(F)F)cc1Br)C(=O)NCC(F)F (stereo partly shown) [P2036]
BAW Rating [1]: A (50-100) | CL Rating [2]: A (50-100)
